Consider 3 molecules from patent publication US11299453B2 (Universität zu Köln, priority 2017, dated 2022).

Data set [1] deals with αPIG-AT25 miPSC-derived cardiomyocytes. The data set is described as follows: Cell viability (PrestoBlue) of miPSC-derived cardiomyocytes. It is filed as cell-based, murine. As for the experimental part: The differentiation of transgenic mPSCs was initiated in mass cultures as briefly described below. One million cells were transferred per non-adhering 10 cm dish with 14 ml differentiation medium composed of Iscove's Modified Dulbecco's Medium (IMDM) with GlutaMAX (Life Technologies) supplemented with 20% FBS, 1×NEAA and 100 μM β-ME. Embryoid bodies (EBs) from day 2 of differentiation were transferred in a 250 ml spinner flask (CELLSPIN 250, Integra Biosciences, Fernwald, Germany) with a density of 3×10^4 EBs per 200 ml of differentiation medium. On the first 2 days of differentiation medium was supplemented with 50 μg/ml L-ascorbic acid phosphate (AA, Wako pure chemicals industry, Japan) in order to promote the development of cardiac cells. For the selection of GFP-expressing CMs, 50 ml of the medium was exchanged with fresh differentiation medium and 8 μg/ml puromycin (Life Technologies) were supplemented on day 9 of differentiation. Two days later, the cardiac clusters were transferred on non-adhering 10 cm dishes with fresh differentiation medium containing 8 μg/ml puromycin. In the further course of differentiation medium was exchanged every 2-3 days. If not otherwise specified, the purification of GFP-positive CMs with puromycin was continued until day 16 of differentiation. For single cell analyses and transfer of PSC-derived CMs on cell culture plates, cardiac clusters were dissociated with 0.25% trypsin-EDTA (Life Technologies) supplemented with 50 U/ml DNase I (AppliChem, Darmstadt, Germany) for 20-30 min at 37° C. The mPSC-derived CMs were filtered through a polyamide membrane with […] pore size (Sefar, Heiden, Switzerland). Cell numbers were determined with a Neubauer hemocytometer and cells were stored on ice until further use.
Serial dilutions of DMSO stock solutions of PluriSIn #1 (Sigma-Aldrich, catalog number SML0682) or one of small molecules SM1-SM10, were prepared from 20 mM stock solutions with cell culture medium. Murine PSCs were dissociated with 0.05% trypsin-EDTA, seeded on 0.1% gelatin-coated 96-well plates with a density of 5000 cells/well and cultured in maintenance medium supplemented with 1000 U/ml of mLIF. After 1 day, cells were incubated with 40 μM PluriSIn #1 and derivatives for 72 h or with 0.01-25 μM SMs for 48 h, respectively. For treatment of corresponding PSC-derived CMs with SMs, puromycin-selected miPSC-CMs from day 14 of differentiation were dissociated with 0.25% trypsin-EDTA as described above and plated on 96-well plates (5×10^4 cells/well) which were pre-coated with 5 μg/ml fibronectin (PromoCell, Heidelberg, Germany). After culturing miPSC-CMs with 8 μg/ml puromycin for 2 more days, they were incubated in differentiation medium supplemented with 0.1-100 μM of SMs for 48-72 h. Following small molecule treatment, cell viability was determined with PrestoBlue cell viability reagent (Life Technologies). To this end, cells were washed with PBS (with calcium and magnesium, Life Technologies) and incubated with PrestoBlue reagent diluted in cell culture medium for 40 min at 37° C.
Fluorescence intensities correlating with the number of viable cells in the wells were measured in black flat-bottom 96-well plates (Greiner Bio-One, Kremsmünster, Austria) with a GeniosPro microplate reader (Tecan, Männedorf, Schweiz).
The selectivity of compounds was investigated by comparing their cytotoxicity against undifferentiated iPSCs and iPSC-derived CMs. Murine iPSCs αPIG-AT25 were incubated for 48 h with compounds SM1, SM2, SM4, SM5, SM6 and SM8 in concentrations of 0.01 to 10 μM. Cell culture and cardiac differentiation were performed as described above. Experiments were run at least in quadruplicate. The cell viability was determined using PrestoBlue cell viability reagent.
The viability of salicylic diamine-treated CMs was confirmed by 72 h of exposure to concentrations of 0.01 μM, 0.1 μM, 1 μM, 10 μM and 25 μM of compounds SM1, SM2, SM4, SM5, SM6 and SM8.

Data set [2] deals with residual PSCs in pre-purified cardiac clusters of murine αPIG-AT25 iPSCs. In words: Colony formation assay after treatment of pre-purified miPSC cardiac clusters. It is filed as cell-based. As to conditions: 48 h. The protocol: Aiming at complete elimination of remaining PSCs in PSC-derived cell aggregates, murine cardiac clusters were pre-purified with 2-4 μg/ml puromycin from day 9 until day 14 of differentiation in order to prevent complete removal of PSCs and then treated with SM6 for 2 days to assess its potential for removal of contaminating PSCs in the absence of puromycin. After treatment, cardiac clusters were dissociated with 0.25% trypsin-EDTA supplemented with 50 U/ml of DNase I and the level of PSC contamination was determined using colony formation assay, flow cytometry for SSEA-1 and RT-PCR for Oct4. In colony formation assays 2×10^5 cells were plated on a 6 cm cell culture dish containing MEF and cultured in maintenance medium supplemented with 1000 U/ml of mLIF for 7-10 days. Developing PSC colonies on MEF plates were quantified and visualized with 1% crystal violet (Fluka Analytical, St. Louis, USA) diluted in methanol (Applichem).
Murine αPIG-AT25 iPSCs were differentiated in spinner flasks and pre-purification of CMs with puromycin was initiated on day 9 for a time period of 5 days, as is schematically illustrated in FIG. 6a). Compared to the standard protocol for the selection of miPSC-CMs, the applied concentration of puromycin was reduced from 8 μg/ml to 2 μg/ml in order to preserve a small population of PSCs in the cardiac clusters which were then treated with 1 μM, 5 μM and 10 μM of compound SM6 for 48 hours.
For quantifying the residual PSCs, the cardiac cluster-derived cells were cultured on MEFs under iPSC conditions to allow PSCs to form colonies which were visualized by crystal violet staining. The pluripotency of grown colonies was confirmed by immunocytochemical stainings for Oct4, at day 7 after plating of CMs from dissociated cardiac clusters on MEF.

The structures appear in SMILES notation.

With `Oc1ccccc1CN[C@@H]1CCCC[C@H]1NCc1ccccc1O` [SM6, (1R,2R)-N,N′-di(2-hydroxybenzyl)-1,2-diaminocyclohexane], the “effect on the viability of cardiomyocytes” value in data set [1] (10 μM, two day-treatment) is reported as “no significant effect”. Besides, the “toxicity to differentiated cardiomyocytes” value in data set [1] (summary in description) is “not toxic”. The “reduction of the number of colonies compared to DMSO-treated control” value in data set [2] (1 μM) came to 71.9±21.19%. The “number of colonies after plating of 2×10^5 cells” value in data set [2] (5 μM) is on record as 2.00±2.94 colonies; in data set [2] (10 μM), 0.37±0.60 colonies.

For the molecule `Oc1c(CNC2CCCC[C@@H]2NCc2cccc(-c3ccccc3)c2O)cccc1-c1ccccc1` (stereo partly drawn) [SM8, (1S,2R)-N,N′-di[(2-hydroxy-3-phenyl)-benzyl]-1,2-diaminocyclohexane], the “decrease of cardiomyocyte viability, in average over SM1, SM4 and SM8” value in data set [1] (10 μM, 72 h of exposure) stood at 79.79±14.72%.

Take `COc1ccc(C[C@H](N)C(=O)N[C@H]2[C@@H](O)[C@H](n3cnc4c(N(C)C)ncnc43)O[C@@H]2CO)cc1` [puromycin, reference compound]: in data set [2] (puromycin 8 μg/ml), the “number of colonies after plating of 2×10^5 cells” value is reported as 28.9±23.37 colonies and the “reduction of the number of colonies compared to DMSO-treated control” value was determined as 64.87±25.55%.
